According to US20070173490A1, “Novel solid forms of (4R)-1-[2-chloro-5-fluorobenzoyl)amino-3-methoxybenzoyl]-1,2,3,5- tetrahydro-spiro[4h-1-benzazepine-4,1'-[2]cyclopentene]-3'-carboxylic acid” (priority 2006, published 2007):
Entries after “also recorded” stand apart in the source; their conditions may differ.

Key:
Assay type in all cases: physicochemical
[1] = Solid form conversion on heating/desolvation via DSC; settings: conversions occurred via DSC, upon heating/desolvation
Protocol: DSC analysis of each sample was performed using a Q100 Differential Scanning Calorimeter (TA Instruments, New Castle, Del., U.S.A.), which uses Thermal Advantage™ version 4.1.0 for operating instrument. In addition, the analysis software used was Universal Analysis 2000 for Windows 2000/XP, version 4.1D; Build 4.1.0.16 (Copyright © 1998-2004 TA Instruments-Water LLC).
For all of the DSC analyses, an aliquot of a sample was weighed into either a standard aluminium pan (Pan part #900786.091; lid part #900779.901) or a hermetic aluminium pan (Pan part #900793.901; lid part #900794.901 (TA Instruments, New Castle Del. USA)). Non-solvated samples were loaded into standard pans and were sealed either by crimping for dry samples or press fitting for wet samples (such as slurries). Solvated samples (including hydrates) were loaded into hermetic pans and hermetically sealed. The sample pan was loaded into the Q100 Differential Scanning Calorimeter, which is equipped with an autosampler, and a thermogram was obtained by individually heating the same using the control software at a rate of 10° C./minute from Tmin (typically 25° C.) to Tmax (typically 275° C.) using an empty aluminium pan as a reference. Dry nitrogen (compressed nitrogen, grade 4.8 (BOC Gases, Murray Hill, N.J. USA)) was used as a sample purge gas and was set at a flow rate of 50 mL/minute. Thermal transitions were viewed and analyzed using the analysis software provided with the instrument.
At least 10 forms were discovered based on distinguished PXRD patterns (all conversions occurred via DSC; such conversions can also occur under ambient conditions at a slower pace).

[2] = Water slurry study of polymorph stability
Protocol: Form 6 was crystallized from acetone, butanol, ethanol, isopropyl alcohol, hexane, and water. It melted with a peak at about 203-204° C. and a heat of fusion of about 75-80 J/g.

[3] = Crystallization solvents list and observations (solubility of the compound in solvents); settings: about 20 mg in 4 ml vial, about 40° C.
Protocol: About 20 mg of (4R)-1-[4-(2-chloro-5-fluorobenzoyl)amino-3-methoxybenzoyl]-1,2,3,5-tetrahydro-spiro[4H-1-benzazepine-4,1′-[2]cyclopentene]-3′-carboxylic acid was transferred into a 4 ml vial. Solvent was added in the vial to make the solution or suspension depending on solubility at about 40° C. on hot plate. The vial was removed from hot plate and kept at room temperature. The caps were put on without sealing. All the vials were placed in the hood for slow evaporation. After the solvent evaporated, the solid was investigated using PXRD, DSC, TGA, and microscope.

With `COc1cc(C(=O)N2CC[C@]3(C=C(C(=O)O)CC3)Cc3ccccc32)ccc1NC(=O)c1cc(F)ccc1Cl` [Form 3, (4R)-1-[4-(2-chloro-5-fluorobenzoyl)amino-3-methoxybenzoyl]-1,2,3,5-tetrahydro-spiro[4H-1-benzazepine-4,1′-[2]cyclopentene]-3′-carboxylic acid] as the compound, how does the “Solid form conversion (physical stability)” value [1] read?
Its value is “converted to form 5”.

What about the “Solid form conversion (physical stability)” value ([1]; listed as 3) of the same compound?
The value was “(solvate converted to form 5)”.

Which “Solid form conversion in water slurry” value ([2]; equal amount of forms 1, 5 and 6 mixed in water for more than 76 hours) does the source give for `COc1cc(C(=O)N2CC[C@]3(C=C(C(=O)O)CC3)Cc3ccccc32)ccc1NC(=O)c1cc(F)ccc1Cl` [Form 1, (4R)-1-[4-(2-chloro-5-fluorobenzoyl)amino-3-methoxybenzoyl]-1,2,3,5-tetrahydro-spiro[4H-1-benzazepine-4,1′-[2]cyclopentene]-3′-carboxylic acid] here?
Its value is “converted to form 6”.

For `COc1cc(C(=O)N2CC[C@]3(C=C(C(=O)O)CC3)Cc3ccccc32)ccc1NC(=O)c1cc(F)ccc1Cl` [Form 6, (4R)-1-[4-(2-chloro-5-fluorobenzoyl)amino-3-methoxybenzoyl]-1,2,3,5-tetrahydro-spiro[4H-1-benzazepine-4,1′-[2]cyclopentene]-3′-carboxylic acid], which “Thermodynamic stability among polymorphs” value ([2]; from highest melting temperature and heat of fusion, confirmed by water slurry study) is on record?
Its value is “thermodynamically most stable polymorph”.

With `COc1cc(C(=O)N2CC[C@]3(C=C(C(=O)O)CC3)Cc3ccccc32)ccc1NC(=O)c1cc(F)ccc1Cl` [Compound of Formula (I), (4R)-1-[4-(2-chloro-5-fluorobenzoyl)amino-3-methoxybenzoyl]-1,2,3,5-tetrahydro-spiro[4H-1-benzazepine-4,1′-[2]cyclopentene]-3′-carboxylic acid] as the compound, how does the “Observation (solubility)” value ([3]; 1,4-Dioxane) read?
Its value is “Good solubility”.

What about the “Observation (solution or suspension)” value ([3]; 1,4-Dioxane) of the same compound?
Its value is “Solution”.

What about the “Observation (solubility)” value ([3]; Acetone) of the same compound?
Its value is “Good solubility”.

What about the “Observation (solution or suspension)” value ([3]; Acetone) of the same compound?
The value was “Solution”.

And the “Observation (solubility)” value ([3]; Acetonitrile)?
The value was “Good solubility”.

What about the “Observation (solution or suspension)” value ([3]; Acetonitrile) of the same compound?
Its value is “Solution”.

And the “Observation (solubility)” value ([3]; Butanol)?
Its value is “Medium solubility”.

And the “Observation (solution or suspension)” value ([3]; Butanol)?
Its value is “Solution”.

What about the “Observation (solubility)” value ([3]; Dichloromethane) of the same compound?
Its value is “Good solubility”.

What about the “Observation (solution or suspension)” value ([3]; Dichloromethane) of the same compound?
Its value is “Solution”.

What about the “Observation (solubility)” value ([3]; Ethanol) of the same compound?
Its value is “Medium solubility”.

What about the “Observation (solution or suspension)” value ([3]; Ethanol) of the same compound?
The value was “Solution”.

And the “Observation (solubility)” value ([3]; Ethyl acetate)?
The value was “Good solubility”.

What about the “Observation (solution or suspension)” value ([3]; Ethyl acetate) of the same compound?
The value was “Solution”.

What about the “Observation (solubility)” value ([3]; Hexane) of the same compound?
The value was “Poor solubility”.

What about the “Observation (solution or suspension)” value ([3]; Hexane) of the same compound?
The value was “Suspension”.

And the “Observation (solubility)” value ([3]; Isopropyl alcohol)?
Its value is “Medium solubility”.

And the “Observation (solution or suspension)” value ([3]; Isopropyl alcohol)?
The value was “Solution”.

And the “Observation (solubility)” value ([3]; Methanol)?
Its value is “Medium solubility”.

And the “Observation (solution or suspension)” value ([3]; Methanol)?
The value was “Solution”.

What about the “Observation (solubility)” value ([3]; Nitromethane) of the same compound?
Its value is “Good solubility”.

What about the “Observation (solution or suspension)” value ([3]; Nitromethane) of the same compound?
The value was “Solution”.

And the “Observation (solubility)” value ([3]; Toluene)?
Its value is “Solution is not clear”.

And the “Observation (solution or suspension)” value ([3]; Toluene)?
Its value is “Precipitation”.

And the “Observation (solubility)” value ([3]; Water)?
The value was “Poor wetability”.

And the “Observation (solution or suspension)” value ([3]; Water)?
Its value is “Suspension”.

For `COc1cc(C(=O)N2CC[C@]3(C=C(C(=O)O)CC3)Cc3ccccc32)ccc1NC(=O)c1cc(F)ccc1Cl` [Form 2, (4R)-1-[4-(2-chloro-5-fluorobenzoyl)amino-3-methoxybenzoyl]-1,2,3,5-tetrahydro-spiro[4H-1-benzazepine-4,1′-[2]cyclopentene]-3′-carboxylic acid], which “Solid form conversion (physical stability)” value ([1]; listed as 2) is on record?
The value was “(solvate converted to form 6)”.

For `COc1cc(C(=O)N2CC[C@]3(C=C(C(=O)O)CC3)Cc3ccccc32)ccc1NC(=O)c1cc(F)ccc1Cl` [Form 7, (4R)-1-[4-(2-chloro-5-fluorobenzoyl)amino-3-methoxybenzoyl]-1,2,3,5-tetrahydro-spiro[4H-1-benzazepine-4,1′-[2]cyclopentene]-3′-carboxylic acid], which “Solid form conversion (physical stability)” value [1] is on record?
Its value is “converted to form 1; also recorded: ultimately to form 6”.

And the “Solid form conversion (physical stability)” value ([1]; listed as 7)?
Its value is “(solvate converted to form 1)”.

What about the “Solid form conversion (physical stability)” value ([1]; listed as form 7) of the same compound?
The value was “converted to form 1”.

For `COc1cc(C(=O)N2CC[C@]3(C=C(C(=O)O)CC3)Cc3ccccc32)ccc1NC(=O)c1cc(F)ccc1Cl` [Form 8, (4R)-1-[4-(2-chloro-5-fluorobenzoyl)amino-3-methoxybenzoyl]-1,2,3,5-tetrahydro-spiro[4H-1-benzazepine-4,1′-[2]cyclopentene]-3′-carboxylic acid], which “Solid form conversion (physical stability)” value [1] is on record?
The value was “converted to form 1”.

What about the “Solid form conversion (physical stability)” value ([1]; listed as 8) of the same compound?
The value was “(solvate converted to form 1)”.

What about the “Solid form conversion (physical stability)” value ([1]; listed as form 8) of the same compound?
Its value is “converted to form 1”.

With `COc1cc(C(=O)N2CC[C@]3(C=C(C(=O)O)CC3)Cc3ccccc32)ccc1NC(=O)c1cc(F)ccc1Cl` [Form 4, (4R)-1-[4-(2-chloro-5-fluorobenzoyl)amino-3-methoxybenzoyl]-1,2,3,5-tetrahydro-spiro[4H-1-benzazepine-4,1′-[2]cyclopentene]-3′-carboxylic acid] as the compound, how does the “Solid form conversion (physical stability)” value ([1]; listed as 4) read?
Its value is “(solvate converted to an amorphous form)”.
